Test results published in patent publication US20100311714A1, “1H-IMIDAZO[4,5-c]QUINOLINONE COMPOUNDS” (priority 2009, published 2010).
Where two headings read alike, the source gives them in different places.

Molecular target: T1, PI3K delta (Homo sapiens, UniProt O00329)
T1 construct: for the full-length p110-d subunit are generated and fused by overlapping PCR; His tag (C); made in house; host or cells: baculovirus BV1060; Tn5 (Trichoplusia ni) or TiniPro insect cells
Test: PI3K delta kinase assay (Kinase-Glo luminescence)
Format: biochemical
Method in brief: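 Kinase-Glo ATP-depletion luminescence using 10 nM p85(iSH2)-linker-p110δ full-length His-tag construct from insect cells, with 1 μM ATP and 10 μg/mL phosphatidylinositol in 10 mM Tris pH 7.5, 3 mM MgCl2, 50 mM NaCl, 0.05% CHAPS, 1 mM DTT. 60 min room temperature; IC50 from 4-parameter logistic fit over 8 concentrations.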

T1 sequence (O00329 with tags, fused parts or gaps limits assumed): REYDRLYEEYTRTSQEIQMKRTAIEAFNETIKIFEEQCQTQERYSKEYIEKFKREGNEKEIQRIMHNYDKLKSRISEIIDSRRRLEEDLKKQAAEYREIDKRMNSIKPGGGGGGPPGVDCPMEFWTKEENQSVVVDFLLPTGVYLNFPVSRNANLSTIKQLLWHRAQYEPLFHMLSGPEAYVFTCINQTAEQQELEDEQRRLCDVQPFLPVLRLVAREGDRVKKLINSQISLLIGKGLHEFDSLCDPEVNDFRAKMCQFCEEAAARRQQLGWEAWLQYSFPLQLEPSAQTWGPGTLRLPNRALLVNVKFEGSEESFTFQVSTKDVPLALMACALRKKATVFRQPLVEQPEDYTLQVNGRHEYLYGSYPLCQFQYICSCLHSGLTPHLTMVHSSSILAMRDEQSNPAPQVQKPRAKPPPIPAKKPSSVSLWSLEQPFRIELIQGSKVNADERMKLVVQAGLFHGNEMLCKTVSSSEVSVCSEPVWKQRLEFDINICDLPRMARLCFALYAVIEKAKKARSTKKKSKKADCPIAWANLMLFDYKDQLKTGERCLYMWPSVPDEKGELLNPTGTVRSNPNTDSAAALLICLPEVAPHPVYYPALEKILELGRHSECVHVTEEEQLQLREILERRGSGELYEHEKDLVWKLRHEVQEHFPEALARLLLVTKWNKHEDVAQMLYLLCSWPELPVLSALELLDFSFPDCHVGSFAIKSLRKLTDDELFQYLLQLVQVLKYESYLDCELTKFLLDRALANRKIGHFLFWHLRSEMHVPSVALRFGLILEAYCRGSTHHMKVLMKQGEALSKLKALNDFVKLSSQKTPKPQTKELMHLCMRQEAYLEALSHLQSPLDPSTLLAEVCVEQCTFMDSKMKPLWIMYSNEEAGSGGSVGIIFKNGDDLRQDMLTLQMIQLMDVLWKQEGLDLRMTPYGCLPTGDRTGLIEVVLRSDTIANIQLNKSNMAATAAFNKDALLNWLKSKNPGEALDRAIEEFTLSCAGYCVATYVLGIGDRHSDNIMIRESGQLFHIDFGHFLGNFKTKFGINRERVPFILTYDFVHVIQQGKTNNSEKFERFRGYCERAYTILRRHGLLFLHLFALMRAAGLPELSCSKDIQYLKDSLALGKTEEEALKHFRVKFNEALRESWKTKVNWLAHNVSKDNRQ

Row | Compound | IC50 (read-out: EPK_PI3Kdelta/IC50) [nM] | IC50 (read-out: PI3Kdelta/IC50) [nM]
1 | CCOc1ccc(-c2ccc3ncc4c(c3c2)n(-c2cccnc2OC)c(=O)n4C)cn1 [Example 1.5, 8-(6-Ethoxy-pyridin-3-yl)-1-(2-methoxy-pyridin-3-yl)-3-methyl-1,3-dihydro-imidazo[4,5-c]quinolin-2-one] | – | 166
2 | COc1nc(N2CCNCC2)ccc1-n1c(=O)n(C)c2cnc3ccc(-c4cnc(N(C)C)nc4)cc3c21 [Example 9.4, 8-(2-Dimethylamino-pyrimidin-5-yl)-1-(2-methoxy-6-piperazin-1-yl-pyridin-3-yl)-3-methyl-1,3-dihydro-imidazo[4,5-c]quinolin-2-one] | 17 | –
3 | CCOc1cc(-c2ccc3ncc4c(c3c2)n(-c2cccnc2C)c(=O)n4C)cnc1C [Example 2.22, 8-(5-Ethoxy-6-methyl-pyridin-3-yl)-3-methyl-1-(2-methyl-pyridin-3-yl)-1,3-dihydro-imidazo[4,5-c]quinolin-2-one] | 61 | –
4 | Cc1nc(N2CC(F)(F)C2)ccc1-n1c(=O)n(C)c2cnc3ccc(-c4cncc(C(C)(C)O)c4)cc3c21 [Example 24.2, 1-[6-(3,3-Difluoro-azetidin-1-yl)-2-methyl-pyridin-3-yl]-8-[5-(1-hydroxy-1-methyl-ethyl)-pyridin-3-yl]-3-methyl-1,3-dihydro-imidazo[4,5-c]quinolin-2-one] | 18 | –
5 | COc1ccc(-c2ccc3ncc4c(c3c2)n(-c2cccnc2)c(=O)n4C)cn1 [Example 5.4, 8-(6-Methoxy-pyridin-3-yl)-3-methyl-1-pyridin-3-yl-1,3-dihydro-imidazo[4,5-c]quinolin-2-one] | – | 39
6 | COc1ccc(-n2c(=O)n(C)c3cnc4ccc(-c5ccc6nccn6c5)cc4c32)c(OC)n1 [Example 8.10, 1-(2,6-Dimethoxy-pyridin-3-yl)-8-imidazo[1,2-a]pyridin-6-yl-3-methyl-1,3-dihydro-imidazo[4,5-c]quinolin-2-one] | 192 | –
7 | Cc1cccnc1-n1c(=O)n(C)c2cnc3ccc(-c4cnc5ccccc5c4)cc3c21 [Example 3.8, 3-Methyl-1-(3-methyl-pyridin-2-yl)-8-quinolin-3-yl-1,3-dihydro-imidazo[4,5-c]quinolin-2-one] | – | 264
8 | COc1ccc(-c2ccc3ncc4c(c3c2)n(-c2ncccc2C)c(=O)n4C)cn1 [Example 3.13, 8-(6-Methoxy-pyridin-3-yl)-3-methyl-1-(3-methyl-pyridin-2-yl)-1,3-dihydro-imidazo[4,5-c]quinolin-2-one] | – | 249
9 | CCOc1ccc(-c2ccc3ncc4c(c3c2)n(-c2cccnc2C)c(=O)n4C)cn1 [Example 2.1, 8-(6-Ethoxy-pyridin-3-yl)-3-methyl-1-(2-methyl-pyridin-3-yl)-1,3-dihydro-imidazo[4,5-c]quinolin-2-one] | – | 94
10 | COCCN(C)c1ccc(-n2c(=O)n(C)c3cnc4ccc(-c5cnc(N)c(C(F)(F)F)c5)cc4c32)c(C)n1 [Example 15.1, 8-(6-Amino-5-trifluoromethyl-pyridin-3-yl)-1-{6-[(2-methoxy-ethyl)-methyl-amino]-2-methyl-pyridin-3-yl}-3-methyl-1,3-dihydro-imidazo[4,5-c]quinolin-2-one] | 7 | –
11 | COCCN(C)c1ccc(-n2c(=O)n(C)c3cnc4ccc(-c5cnc6c(ccn6C)c5)cc4c32)c(C)n1 [Example 15.7, 1-{6-[(2-Methoxy-ethyl)-methyl-amino]-2-methyl-pyridin-3-yl}-3-methyl-8-(1-methyl-1H-pyrrolo[2,3-b]pyridin-5-yl)-1,3-dihydro-imidazo[4,5-c]quinolin-2-one] | 21 | –
12 | CCOc1ccc(-c2ccc3ncc4c(c3c2)n(-c2cncc(C)c2)c(=O)n4C)cn1 [Example 17.1, 8-(6-Ethoxy-pyridin-3-yl)-3-methyl-1-(5-methyl-pyridin-3-yl)-1,3-dihydro-imidazo[4,5-c]quinolin-2-one] | 275 | –

Continued, values first:

Row | IC50 (read-out: EPK_PI3Kdelta/IC50) [nM] | IC50 (read-out: PI3Kdelta/IC50) [nM] | Compound
13 | 142 | – | COCC(=O)Nc1ccc(-n2c(=O)n(C)c3cnc4ccc(-c5cncc(OC(C)C)c5)cc4c32)c(C)n1 [Example 20.5, N-{5-[8-(5-Isopropoxy-pyridin-3-yl)-3-methyl-2-oxo-2,3-dihydro-imidazo[4,5-c]quinolin-1-yl]-6-methyl-pyridin-2-yl}-2-methoxy-acetamide]
14 | 34 | – | COCC(=O)Nc1ccc(-n2c(=O)n(C)c3cnc4ccc(-c5cncc(N)c5)cc4c32)c(C)n1 [Example 20.1, N-{5-[8-(5-Amino-pyridin-3-yl)-3-methyl-2-oxo-2,3-dihydro-imidazo[4,5-c]quinolin-1-yl]-6-methyl-pyridin-2-yl}-2-methoxy-acetamide]
15 | 26 | – | CNc1cc(-c2ccc3ncc4c(c3c2)n(-c2ccc(F)nc2C)c(=O)n4C)cnc1CO [Example 7.11, 1-(6-Fluoro-2-methyl-pyridin-3-yl)-8-(6-hydroxymethyl-5-methylamino-pyridin-3-yl)-3-methyl-1,3-dihydro-imidazo[4,5-c]quinolin-2-one]
16 | 49 | – | Cc1ccc(-n2c(=O)n(C)c3cnc4ccc(-c5cnc(N(C)C)nc5)cc4c32)c(C)n1 [Example 14.3, 8-(2-Dimethylamino-pyrimidin-5-yl)-1-(2,6-dimethyl-pyridin-3-yl)-3-methyl-1,3-dihydro-imidazo[4,5-c]quinolin-2-one]
17 | 403 | – | CNc1ncc(-c2ccc3ncc4c(c3c2)n(-c2ccc(NC(=O)COC)nc2C)c(=O)n4C)cn1 [Example 20.3, 2-Methoxy-N-{6-methyl-5-[3-methyl-8-(2-methylamino-pyrimidin-5-yl)-2-oxo-2,3-dihydro-imidazo[4,5-c]quinolin-1-yl]-pyridin-2-yl}-acetamide]
18 | 247 | – | CCOc1ccc(-c2ccc3ncc4c(c3c2)n(-c2ccc(NC(=O)COC)nc2C)c(=O)n4C)cn1 [Example 20.2, N-{5-[8-(6-Ethoxy-pyridin-3-yl)-3-methyl-2-oxo-2,3-dihydro-imidazo[4,5-c]quinolin-1-yl]-6-methyl-pyridin-2-yl}-2-methoxy-acetamide]
19 | 28 | – | CNc1cc(-c2ccc3ncc4c(c3c2)n(-c2ccc(N(C)C)nc2C)c(=O)n4C)cnc1C [Example 19.2, 1-(6-Dimethylamino-2-methyl-pyridin-3-yl)-3-methyl-8-(6-methyl-5-methylamino-pyridin-3-yl)-1,3-dihydro-imidazo[4,5-c]quinolin-2-one]
20 | 20 | – | Cc1nc(F)ccc1-n1c(=O)n(C)c2cnc3ccc(-c4cnc(N)c(CO)c4)cc3c21 [Example 7.17, 8-(6-Amino-5-hydroxymethyl-pyridin-3-yl)-1-(6-fluoro-2-methyl-pyridin-3-yl)-3-methyl-1,3-dihydro-imidazo[4,5-c]quinolin-2-one]
21 | 742 | – | CCOc1ccc(-c2ccc3ncc4c(c3c2)n(-c2ccc(OCCOC)nc2C)c(=O)n4C)cn1 [Example 13.1, 8-(6-Ethoxy-pyridin-3-yl)-1-[6-(2-methoxy-ethoxy)-2-methyl-pyridin-3-yl]-3-methyl-1,3-dihydro-imidazo[4,5-c]quinolin-2-one]
22 | 56.5 | – | Cc1nc(F)ccc1-n1c(=O)n(C)c2cnc3ccc(-c4cncc(N)c4)cc3c21 [Example 7.16, 8-(5-Amino-pyridin-3-yl)-1-(6-fluoro-2-methyl-pyridin-3-yl)-3-methyl-1,3-dihydro-imidazo[4,5-c]quinolin-2-one]
23 | 4 | – | COc1ccc(-n2c(=O)n(C)c3cnc4ccc(-c5cnc(N(C)C)nc5)cc4c32)c(Cl)n1 [Example 18.3, 1-(2-Chloro-6-methoxy-pyridin-3-yl)-8-(2-dimethylamino-pyrimidin-5-yl)-3-methyl-1,3-dihydro-imidazo[4,5-c]quinolin-2-one]
24 | 15 | – | CCNc1cc(-c2ccc3ncc4c(c3c2)n(-c2ccc(OCCOC)nc2C)c(=O)n4C)cnc1C [Example 13.4, 8-(5-Ethylamino-6-methyl-pyridin-3-yl)-1-[6-(2-methoxy-ethoxy)-2-methyl-pyridin-3-yl]-3-methyl-1,3-dihydro-imidazo[4,5-c]quinolin-2-one]
25 | 10 | – | CNc1cc(-c2ccc3ncc4c(c3c2)n(-c2ccc(C(F)(F)F)nc2C)c(=O)n4C)cnc1CO [Example 33.2, 8-(6-Hydroxymethyl-5-methylamino-pyridin-3-yl)-3-methyl-1-(2-methyl-6-trifluoromethyl-pyridin-3-yl)-1,3-dihydro-imidazo[4,5-c]quinolin-2-one]
26 | 36 | – | CNc1ccc(-c2ccc3ncc4c(c3c2)n(-c2ccc(N(C)CCOC)nc2C)c(=O)n4C)cn1 [Example 15.4, 1-{6-[(2-Methoxy-ethyl)-methyl-amino]-2-methyl-pyridin-3-yl}-3-methyl-8-(6-methylamino-pyridin-3-yl)-1,3-dihydro-imidazo[4,5-c]quinolin-2-one]
27 | 207 | – | CNc1ccc(-c2ccc3ncc4c(c3c2)n(-c2cnc(F)cc2C)c(=O)n4C)cn1 [Example 16.4, 1-(6-Fluoro-4-methyl-pyridin-3-yl)-3-methyl-8-(6-methylamino-pyridin-3-yl)-1,3-dihydro-imidazo[4,5-c]quinolin-2-one]
28 | – | 85 | COc1ncccc1-n1c(=O)n(C)c2cnc3ccc(-c4cnc(N(C)C)nc4)cc3c21 [Example 1.9, 8-(2-Dimethylamino-pyrimidin-5-yl)-1-(2-methoxy-pyridin-3-yl)-3-methyl-1,3-dihydro-imidazo[4,5-c]quinolin-2-one]
29 | 44 | – | CNc1ncc(-c2ccc3ncc4c(c3c2)n(-c2ccc(C)nc2C)c(=O)n4C)cn1 [Example 14.4, 1-(2,6-Dimethyl-pyridin-3-yl)-3-methyl-8-(2-methylamino-pyrimidin-5-yl)-1,3-dihydro-imidazo[4,5-c]quinolin-2-one]
30 | 56 | – | COCCOc1ccc(-n2c(=O)n(C)c3cnc4ccc(-c5cnc(COC)c(OC)c5)cc4c32)c(C)n1 [Example 22.3, 1-[6-(2-Methoxy-ethoxy)-2-methyl-pyridin-3-yl]-8-(5-methoxy-6-methoxymethyl-pyridin-3-yl)-3-methyl-1,3-dihydro-imidazo[4,5-c]quinolin-2-one]
